# Results reported in paper PMC6628648, “Enabling microbial syringol conversion through structure-guided protein engineering” (Proceedings of the National Academy of Sciences of the …, 2019).
# Experiments:
# Assay type in all cases: biochemical, Amycolatopsis sp. ATCC 39116
# WT GcoA [1] = target: T1, WT GcoA (Amycolatopsis sp., UniProt P0DPQ7); test: NADH consumption assay (steady-state kinetics, specific activity) with GcoB; conditions: for Specific activity: WT, NADH consumption, saturating (200 µM) substrate, pH 7.5, 25°C
# T1 construct: GST (N, cleaved yes); made in house; host or cells: E. coli Rosetta 2 (DE3)
# T1 sequence (P0DPQ7 1-407): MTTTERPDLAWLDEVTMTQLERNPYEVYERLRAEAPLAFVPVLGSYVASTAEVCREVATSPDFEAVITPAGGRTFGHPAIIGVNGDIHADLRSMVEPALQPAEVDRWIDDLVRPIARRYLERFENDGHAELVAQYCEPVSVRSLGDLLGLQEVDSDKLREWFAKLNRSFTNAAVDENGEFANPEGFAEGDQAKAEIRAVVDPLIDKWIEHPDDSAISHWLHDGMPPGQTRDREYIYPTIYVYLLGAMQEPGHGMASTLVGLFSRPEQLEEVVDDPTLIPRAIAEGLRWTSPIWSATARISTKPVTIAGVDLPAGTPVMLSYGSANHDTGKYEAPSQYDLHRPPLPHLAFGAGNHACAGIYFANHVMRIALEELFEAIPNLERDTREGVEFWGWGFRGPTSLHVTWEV
# GcoA variant F169L = target: T2, GcoA variant F169L (Amycolatopsis sp., UniProt P0DPQ7, F169L); test: NADH consumption assay (specific activity) with GcoB; conditions: saturating (200 µM) substrate, pH 7.5, 25°C
# T2 construct: GST (N, cleaved yes); made in house; host or cells: E. coli Rosetta 2 (DE3)
# WT GcoA [2] = target: T1, WT GcoA; test: End-point coupling assay (formaldehyde produced per NADH consumed); conditions: molar ratio formaldehyde produced per NADH consumed, 200 µM NADH, 200 µM aromatic substrate
# GcoA-F169A = GcoA-F169A (Amycolatopsis sp., UniProt P0DPQ7, F169A); test: End-point stoichiometry and coupling assay (formaldehyde by tryptophan assay, aromatics by HPLC, NADH by UV/vis); set-up: GST (N, cleaved yes); made in house; host or cells: E. coli Rosetta 2 (DE3); conditions: for Coupling efficiency: F169A, molar ratio formaldehyde produced per NADH consumed, 200 µM NADH, 200 µM aromatic substrate; for % Formaldehyde produced: referenced to NADH consumed; for formaldehyde produced at reaction completion: 100 μM substrate
# Description: Fig. 1. Quantitative analyses of substrate consumption and product generation indicate nearly complete coupling of NADH/O2 consumption to substrate O-demethylation for guaiacol and progressively more uncoupling for syringol and 3MC. […] Reactants and products were quantified when the UV/vis spectrum ceased changing and the reaction was deemed complete. The total NADH consumed is compared with the amounts of formaldehyde and demethylated aromatic compound produced. Pyrogallol, the O-demethylated product of 3MC, is unstable in air under the conditions used in the assay and was not detected. Error bars represent ±1 SD from three or more independent measurements. P values comparing NADH consumption and formaldehyde production were 0.035 for guaiacol, 0.20 for 100 µM syringol, 0.41 for 200 µM syringol, and 0.0035 for 3MC. For NADH consumption and aromatic product production, these P values were 0.011 for guaiacol, 0.00031 for 100 µM syringol, and 0.0084 for 200 µM syringol.
# The [formaldehyde] produced on reaction with GcoA-F169A and substrates was determined using a colorimetric assay with tryptophan ([28], [42]); details are provided in SI Appendix.
# HPLC was used to verify the O-demethylated product of GcoA-F169A GcoA/GcoB with guaiacol, syringol, or 3MC. In addition, discontinuous HPLC was used to determine the specific activity of aromatic product disappearance. Details are provided in SI Appendix. […]
# vi = Vmax[S]/(KM + [S]) (4) […]
# Formaldehyde determination. A colorimetric assay using tryptophan can be used to quantify the amount of formaldehyde produced in F169 GcoA/B reactions with guaiacol, syringol, or 3MC. 0.2 µM each of F169 GcoA mutants and GcoB were dissolved in air-saturated buffer (25 mM HEPES, 50 mM NaCl) in a cuvette at pH 7.5, 25 °C. 100 µg/mL catalase was added to each reaction to capture any H2O2 formed during the uncoupled reaction. 200 μM NADH was added and the background rate recorded. 100 (guaiacol, syringol, or 3MC) or 200 (syringol) μM of substrate was then added and the reaction monitored until there was no more change, due to either substrate, NADH or O2 depletion, whichever occurred first. 200 µL of the reaction was then quenched by adding 200 µL of a 0.1% tryptophan solution in 50% ethanol and 200 µL of 90% sulfuric acid. Upon thorough mixing, 40 µL of 1% FeCl3 was added. The solution was then incubated in a heating block for 90 min at 70 °C. After cooling, the absorbance was read at 575 nm and the [formaldehyde] calculated by using ε575 nm = 4.2 mM-1 cm-1, obtained with formaldehyde as a standard (1). A negative control included everything but the substrate and was used as a baseline.
# HPLC for product identification and specific activity measurement. Analyte analysis of the above end-point reactions (100 μM guaiacol, syringol, or 3MC, or 200 μM syringol) was performed on an Agilent 1100 LC system (Agilent Technologies) equipped with a G1315B diode array detector (DAD). Each sample and standard was injected at a volume of 10 μL onto a Symmetry C18 column 5 μm, 4.6 x 150 mm column (Waters). The column temperature was maintained at 30 °C and the buffers used to separate the analytes of interest was 0.01% TFA in water (A)/ acetonitrile (B). The separation was carried out using a gradient program of: (A) = 99% and (B) = 1% at time t = 0 min; (A) = 99% and (B) = 1% at time t = 2 min, (A) = 50% and (B) = 50% at t = 8 min; (A) = 1% and (B) = 99% at t = 8.01 min; (A) = 99% and (B) = 1% at t = 10.01 min; (A) = 99% and (B) = 1% at t = 11 min. The flow rate was held constant at 1.5 mL min-1, resulting in a run time of 11 minutes. DAD wavelengths of 210 and 325 nm were used for analysis of the analytes of interest. Standard curves were generated using 0-500 μM of guaiacol, syringol, 3MC, catechol, and pyrogallol. Integrated intensities vs [standards] were plotted and the resulting standard curves used to quantify the reactants and products. […]
# [3] = GcoA-F169A, 100 µM substrate + 100 µM NADH
# [4] = GcoA-F169A, 200 μM NADH, 210 μM O2
# [5] = WT GcoA, apparent, 0.2 µM GcoAB, 300 µM NADH, 210 µM O2, 0–300 µM substrate, pH 7.5, 25 °C
# [6] = GcoA-F169A, NADH and syringol ∼200 μM each, 210 μM O2
# Sequence of GcoA-F169A (P0DPQ7 whole entry F169A): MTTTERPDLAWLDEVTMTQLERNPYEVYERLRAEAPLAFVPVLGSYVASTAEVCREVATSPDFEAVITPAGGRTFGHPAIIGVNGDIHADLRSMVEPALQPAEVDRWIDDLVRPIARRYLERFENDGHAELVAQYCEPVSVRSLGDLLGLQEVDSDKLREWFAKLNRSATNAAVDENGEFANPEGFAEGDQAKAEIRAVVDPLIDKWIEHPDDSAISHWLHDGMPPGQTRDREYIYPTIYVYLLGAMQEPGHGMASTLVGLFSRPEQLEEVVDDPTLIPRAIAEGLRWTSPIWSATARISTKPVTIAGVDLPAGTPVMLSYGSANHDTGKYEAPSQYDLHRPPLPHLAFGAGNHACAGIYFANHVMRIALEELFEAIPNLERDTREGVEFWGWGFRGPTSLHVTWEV
# T2 sequence (P0DPQ7 whole entry F169L): as the sequence (P0DPQ7 whole entry F169A) above, with A169L counted along it
SMILES,Specific activity (WT GcoA [1]) [μmol sec-1 μmol-1 GcoA],Specific activity (GcoA variant F169L) [μmol sec-1 μmol-1 GcoA],Coupling efficiency (WT GcoA [2]) [%],Coupling efficiency (GcoA-F169A) [%],% Formaldehyde produced (GcoA-F169A; [3]) [%],formaldehyde produced at reaction completion (GcoA-F169A; [4]) [µM],Km (WT GcoA [1]; [5]) [µM],kcat (WT GcoA [1]; [5]) [s⁻¹],"demethylation by WT GcoA (WT GcoA [1]; WT GcoA 0.2 μM, 300 μM NADH, 210 μM O2, pH 7.5, 25 °C)","% Formaldehyde produced (GcoA-F169A; GcoA-F169A, 100 µM substrate + 200 µM NADH) [%]","singly demethylated intermediate 3MC observed at the end of the reaction (GcoA-F169A; GcoA-F169A, 100 μM syringol, 200 μM NADH, 210 μM O2) [µM]",3MC generated (GcoA-F169A; [6]) [µM],formaldehyde generated (GcoA-F169A; [6]) [µM],syringol consumed (GcoA-F169A; [6]) [µM]
"COc1cccc(O)c1O [3MC, 3-methoxycatechol]",3.2 ± 0.2,0.57 ± 0.2,78 ± 3,64 ± 10,52 ± 7,~100,–,–,–,–,–,–,–,–
"COc1ccccc1O [guaiacol, 2-methoxyphenol]",5.0 ± 0.1,4.5 ± 0.3,110 ± 10,103 ± 7,100 ± 10,–,60 ± 10,6.8 ± 0.02,–,–,–,–,–,–
"COc1cccc(OC)c1O [syringol, 2,6-dimethoxyphenol]",–,0.54 ± 0.1,7.1 ± 0.8,104 ± 6,125 ± 6,170 ± 10,–,–,unable to demethylate syringol,91 ± 8,50 ± 4,120 ± 2,200 ± 3,150 ± 6
